pIC50: −log10 of the molar value.
target: IDO1 (Homo sapiens, UniProt P14902); test: IDO1 Cellular Assay in HeLa Cells Stimulated with IFNγ; type: cell-based; conditions: read-out: HeLa Cell Potency, IC50
Sequence (P14902 whole entry): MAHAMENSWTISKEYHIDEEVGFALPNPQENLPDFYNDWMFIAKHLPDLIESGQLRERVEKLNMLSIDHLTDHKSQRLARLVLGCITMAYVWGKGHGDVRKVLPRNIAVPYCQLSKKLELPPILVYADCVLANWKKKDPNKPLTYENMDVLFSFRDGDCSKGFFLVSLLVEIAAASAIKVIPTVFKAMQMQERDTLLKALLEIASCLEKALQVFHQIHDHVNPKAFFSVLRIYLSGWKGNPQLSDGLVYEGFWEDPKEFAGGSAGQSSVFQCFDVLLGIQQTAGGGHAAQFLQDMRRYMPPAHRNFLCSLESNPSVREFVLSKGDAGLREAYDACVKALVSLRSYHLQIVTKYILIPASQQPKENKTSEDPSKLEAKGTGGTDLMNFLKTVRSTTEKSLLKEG

SMILES	pIC50
Cc1c(Cl)cccc1N1CCN(C(=O)Cn2nc(C(=O)N3CCN(C(=O)CO)CC3)c3c2CCC(F)C3)CC1 (centres unmarked) [Example 376, 1-(4-(3-chloro-2-methylphenyl)piperazin-1-yl)-2-(5-fluoro-3-(4-(2-hydroxyacetyl)piperazine-1-carbonyl)-4,5,6,7-tetrahydro-1H-indazol-1-yl)ethan-1-one]	7.85
CC(=O)NC1CCN(C(=O)c2nn(CC(=O)N3CCN(c4cccc(Cl)c4C)CC3)c3c2CC(F)CC3)CC1 (centres unmarked) [Example 377, N-(1-(1-(2-(4-(3-chloro-2-methylphenyl)piperazin-1-yl)-2-oxoethyl)-5-fluoro-4,5,6,7-tetrahydro-1H-indazol-3-carbonyl)piperidin-4-yl)acetamide]	8.50
Cc1cccc(N2CCN(C(=O)Cn3nc(C(=O)N4CCN(C(=O)[C@H](C)O)CC4)c4c3CCC4)CC2)c1C [Example 397, (S)-1-(4-(1-(2-(4-(2,3-dimethylphenyl)piperazin-1-yl)-2-oxoethyl)-1,4,5,6-tetrahydrocyclopenta[c]pyrazole-3-carbonyl)piperazin-1-yl)-2-hydroxypropan-1-one]	7.65
Cc1cccc(N2CCN(C(=O)Cn3nc(C(=O)N4CCN(C(=O)CN)CC4)c4c3CCC4)CC2)c1C [Example 398, 2-amino-1-(4-(1-(2-(4-(2,3-dimethylphenyl)piperazin-1-yl)-2-oxoethyl)-1,4,5,6-tetrahydrocyclopenta[c]pyrazole-3-carbonyl)piperazin-1-yl)ethanone]	6.59
Cc1cccc(N2CCN(C(=O)Cn3nc(C(=O)N4CCN(C(=O)CO)[C@H](C)C4)c4c3CCC4)CC2)c1C [Example 400, (R)-1-(4-(2,3-dimethylphenyl)piperazin-1-yl)-2-(3-(4-(2-hydroxyacetyl)-3-methylpiperazine-1-carbonyl)-5,6-dihydrocyclopenta[c]pyrazol-1(4H)-yl)ethanone]	7.59
Cc1cccc(N2CCN(C(=O)Cn3nc(C(=O)N4CCN(C(=O)[C@@H](C)O)CC4)c4c3CCC4)CC2)c1C [Example 403, (R)-1-(4-(1-(2-(4-(2,3-dimethylphenyl)piperazin-1-yl)-2-oxoethyl)-1,4,5,6-tetrahydrocyclopenta[c]pyrazole-3-carbonyl)piperazin-1-yl)-2-hydroxypropan-1-one]	7.74
Cc1c(Cl)cccc1N1CCN(C(=O)Cn2nc(C(=O)N3CC[C@H](O)[C@@H](F)C3)c3c2CCCC3)CC1 [Example 404, 1-(4-(3-chloro-2-methylphenyl)piperazin-1-yl)-2-(3-((3S,4S)-3-fluoro-4-hydroxypiperidine-1-carbonyl)-4,5,6,7-tetrahydro-1H-indazol-1-yl)ethanone]	8.97
Cc1c(Cl)ccnc1N1CCN(C(=O)Cn2nc(C(=O)N3CCC(O)CC3)c3c2CCCC3)C2(CC2)C1 [Example 408, 1-(7-(4-chloro-3-methylpyridin-2-yl)-4,7-diazaspiro[2.5]octan-4-yl)-2-(3-(4-hydroxypiperidine-1-carbonyl)-4,5,6,7-tetrahydro-1H-indazol-1-yl)ethanone]	8.31
Cc1cccc(N2CCN(C(=O)Cn3nc(C(=O)N4CCC(O)CC4)c4c3CCCCC4)CC2)c1C [Example 409, 1-(4-(2,3-dimethylphenyl)piperazin-1-yl)-2-(3-(4-hydroxypiperidine-1-carbonyl)-5,6,7,8-tetrahydrocyclohepta[c]pyrazol-1(4H)-yl)ethan-1-one]	8.58
Cc1cccc(N2CCN(C(=O)Cn3nc(C(=O)N4CCC(O)C(F)C4)c4c3CCCCC4)CC2)c1C (centres unmarked) [Example 411, 1-(4-(2,3-dimethylphenyl)piperazin-1-yl)-2-(3-(3-fluoro-4-hydroxypiperidine-1-carbonyl)-5,6,7,8-tetrahydrocyclohepta[c]pyrazol-1(4H)-yl)ethanone]	8.06
Cc1cccc(N2CCN(C(=O)Cn3nc(C(=O)N4CC[C@H](O)[C@@H](F)C4)c4c3C(O)CC4)CC2)c1C (some centres unmarked) [Example 420, 1-(4-(2,3-dimethylphenyl)piperazin-1-yl)-2-(3-((3 S,4 S)-3-fluoro-4-hydroxypiperidine-1-carbonyl)-6-hydroxy-5,6-dihydrocyclopenta[c]pyrazol-1(4H)-yl)ethan-1-one]	7.06
O=C(Cn1nc(C(=O)N2CC[C@H](O)[C@H](F)C2)c2c1CCC2)N1CCN(C2CCCc3ccccc32)CC1 (stereo partly drawn) [Example 425, 2-(3-((3R,4S)-3-fluoro-4-hydroxypiperidine-1-carbonyl)-5,6-dihydrocyclopenta[c]pyrazol-1(4H)-yl)-1-(4-(1,2,3,4-tetrahydronaphthalen-1-yl)piperazin-1-yl)ethanone]	6.25
C[C@@H]1CN(C(=O)c2nn(CC(=O)N3CCN(C4CCCc5ccccc54)CC3)c3c2CCC3)C[C@H](C)O1 (stereo partly drawn) [Example 428, 2-(3-((2S,6R)-2,6-dimethylmorpholine-4-carbonyl)-5,6-dihydrocyclopenta[c]pyrazol-1(4H)-yl)-1-(4-(1,2,3,4-tetrahydronaphthalen-1-yl)piperazin-1-yl)ethanone]	7.07
O=C(Cn1nc(C(=O)N2CC[C@H](O)[C@@H](F)C2)c2c1CCC2)N1CCN(C2CCCc3ccccc32)CC1 (stereo partly drawn) [Example 433, 2-(3-((3S,4S)-3-fluoro-4-hydroxypiperidine-1-carbonyl)-5,6-dihydrocyclopenta[c]pyrazol-1(4H)-yl)-1-(4-(1,2,3,4-tetrahydronaphthalen-1-yl)piperazin-1-yl)ethanone]	6.31

Second part, the molecule after the results:

pIC50	SMILES
8.03	Cc1c(Cl)cccc1N1CCN(C(=O)Cn2nc(C(=O)N3CC[C@@H](O)[C@@H](F)C3)c3c2CCC(F)(F)C3)CC1 [Example 378, 1-(4-(3-chloro-2-methylphenyl)piperazin-1-yl)-2-(5,5-difluoro-3-((3 S,4R)-3-fluoro-4-hydroxypiperidine-1-carbonyl)-4,5,6,7-tetrahydro-1H-indazol-1-yl)ethan-1-one]
7.93	Cc1c(Cl)cccc1N1CCN(C(=O)Cn2nc(C(=O)N3CCN(C)C(C)C3)c3c2CCC(F)(F)C3)CC1 (centres unmarked) [Example 382]
8.35	Cc1c(Cl)cccc1N1CCN(C(=O)Cn2nc(C(=O)N3CCC(O)(CF)CC3)c3c2CCC(F)(F)C3)CC1 [Example 383, 1-(4-(3-chloro-2-methylphenyl)piperazin-1-yl)-2-(5,5-difluoro-3-(4-(fluoromethyl)-4-hydroxypiperidine-1-carbonyl)-4,5,6,7-tetrahydro-1H-indazol-1-yl)ethan-1-one]
7.46	Cc1cccc(N2CCN(C(=O)Cn3nc(C(=O)N4CCC(O)CC4)c4c3C[C@H]3C[C@@H]43)C(C(F)F)C2)c1C (stereo partly drawn) [Example 385, 1-(2-(difluoromethyl)-4-(2,3-dimethylphenyl)piperazin-1-yl)-2-((3bR,4aR)-3-(4-hydroxypiperidine-1-carbonyl)-3b,4,4a,5-tetrahydro-1H-cyclopropa[3,4]cyclopenta[1,2-c]pyrazol-1-yl)ethanone]
7.03	Cc1cccc(N2CCN(C(=O)Cn3nc(C(=O)N4CCN(C(=O)CO)CC4)c4c3C[C@H]3C[C@@H]43)C(C(F)F)C2)c1C (some centres unmarked) [Example 388]
7.32	Cc1cccc(N2CCN(C(=O)Cn3nc(C(=O)N4CCN(C(=O)CO)CC4)c4c3C[C@H]3C[C@@H]43)C(C(F)F)C2)c1C (some centres unmarked) [Example 389]
6.65	Cc1cccc(N2CCN(C(=O)Cn3nc(C(=O)N4CCN(C(=O)CO)CC4)c4c3C[C@H]3C[C@@H]43)C(C(F)F)C2)c1C (some centres unmarked) [Example 390]
7.65	COCC(=O)N1CCN(C(=O)c2nn(CC(=O)N3CCN(c4cccc(C)c4C)CC3)c3c2CCC3)CC1 [Example 399, 1-(4-(2,3-dimethylphenyl)piperazin-1-yl)-2-(3-(4-(2-methoxyacetyl)piperazine-1-carbonyl)-5,6-dihydrocyclopenta[c]pyrazol-1(4H)-yl)ethanone]
7.89	Cc1cccc(N2CCN(C(=O)Cn3nc(C(=O)N4CCN(C(=O)CO)C[C@@H]4C)c4c3CCC4)CC2)c1C [Example 401, (S)-1-(4-(2,3-dimethylphenyl)piperazin-1-yl)-2-(3-(4-(2-hydroxyacetyl)-2-methylpiperazine-1-carbonyl)-5,6-dihydrocyclopenta[c]pyrazol-1(4H)-yl)ethanone]
8.45	Cc1cccc(N2CCN(C(=O)Cn3nc(C(=O)N4CCN(C(=O)CO)C[C@H]4C)c4c3CCC4)CC2)c1C [Example 402, (R)-1-(4-(2,3-dimethylphenyl)piperazin-1-yl)-2-(3-(4-(2-hydroxyacetyl)-2-methylpiperazine-1-carbonyl)-5,6-dihydrocyclopenta[c]pyrazol-1(4H)-yl)ethanone]
8.96	Cc1c(Cl)cccc1N1CCN(C(=O)Cn2nc(C(=O)N3CCC(O)(CF)CC3)c3c2CCCC3)CC1 [Example 407, 1-(4-(3-chloro-2-methylphenyl)piperazin-1-yl)-2-(3-(4-(fluoromethyl)-4-hydroxypiperidine-1-carbonyl)-4,5,6,7-tetrahydro-1H-indazol-1-yl)ethanone]
8.30	Cc1cccc(N2CCN(C(=O)Cn3nc(C(=O)N4C[C@@H](C)O[C@@H](C)C4)c4c3CCCCC4)CC2)c1C [Example 410, 2-(3-((2R,6S)-2,6-dimethylmorpholine-4-carbonyl)-5,6,7,8-tetrahydrocyclohepta[c]pyrazol-1(4H)-yl)-1-(4-(2,3-dimethylphenyl)piperazin-1-yl)ethanone]
8.27	Cc1cccc(N2CCN(C(=O)Cn3nc(C(=O)N4CC[C@H](O)[C@H](F)C4)c4c3CCCCC4)CC2)c1C [Example 412, 1-(4-(2,3-dimethylphenyl)piperazin-1-yl)-2-(3-((3R,4S)-3-fluoro-4-hydroxypiperidine-1-carbonyl)-5,6,7,8-tetrahydrocyclohepta[c]pyrazol-1(4H)-yl)ethanone]
8.03	Cc1cccc(N2CCN(C(=O)Cn3nc(C(=O)N4CC[C@H](O)[C@@H](F)C4)c4c3CCCCC4)CC2)c1C [Example 413, 1-(4-(2,3-dimethylphenyl)piperazin-1-yl)-2-(3-((3S,4S)-3-fluoro-4-hydroxypiperidine-1-carbonyl)-5,6,7,8-tetrahydrocyclohepta[c]pyrazol-1(4H)-yl)ethanone]
6.38	Cc1cccc(N2CCN(C(=O)Cn3nc(C(=O)N4CC[C@H](O)[C@@H](F)C4)c4c3CC(F)(F)C4)CC2)c1C [Example 424, 2-(5,5-difluoro-3-((3 S,4S)-3-fluoro-4-hydroxypiperidine-1-carbonyl)-5,6-dihydrocyclopenta[c]pyrazol-1(4H)-yl)-1-(4-(2,3-dimethylphenyl)piperazin-1-yl)ethan-1-one]
